Converted amounts (≈) assume the structure as drawn.

The conditions of this data set: buffer; pH 7.4; 200.0 µM.
Usually solubility (kinetic) stands for solubility judged after dilution from a stock solution rather than from solid. Compound `CC(C)(C)OC(=O)N1CCC(CNC(=O)c2ccc(F)cc2F)CC1` showed a kinetic solubility of 51 µg/mL (≈ 144 µM). `COc1ccc(CNC(=O)COC(=O)c2cccn2C)cc1`: the solubility (kinetic) was > 45.3 µg/mL. The result for `CN(CC(=O)Nc1c(Cl)cccc1Cl)C(=O)c1cccn1C` reads > 51 µg/mL; that for `CCC(C)c1ccc(NC(=O)NCCN2CCCCC2)cc1` (stereo unspecified), 40.3 µg/mL (≈ 133 µM); that for `O=C(NC1CC1)c1ccc(CSCc2ccccc2Cl)o1`, > 48.3 µg/mL. `Cc1cc(-c2nc(-c3ccncc3)no2)ccc1[N+](=O)[O-]` displayed a kinetic solubility of 1.8 µg/mL (≈ 6.38 µM). For `Cc1ccnc(NC(=O)CNC(=O)c2ccccc2)c1`, the kinetic solubility was > 40.4 µg/mL.

Turning to `O=C(Nc1ccccn1)Nc1ccccc1Cl`, the solubility (kinetic) was determined as 0.3 µg/mL (≈ 1.21 µM). The compound `CCN(CC)CCNC(=O)c1ccc(NC(=O)Cc2ccsc2)cc1` registered a kinetic solubility of 49.4 µg/mL (≈ 137 µM). This solubility kinetic is about 160-fold higher than that of the compound before. `COc1cccc(-c2nc(N)nc(SC)c2C#N)c1`: the kinetic solubility turned out to be 0.6 µg/mL (≈ 2.2 µM). Against the preceding compound, the solubility kinetic is about 82-fold lower. `CCN(CC)CCNC(=O)c1cc(S(C)(=O)=O)ccc1OC.Cl` had a solubility (kinetic) of 52.5 µg/mL. This solubility kinetic lies about 88-fold higher than the previous one. The result for `O=C(Nc1c(-c2cccs2)nc2ccccn12)c1ccccc1F` reads 47.1 µg/mL (≈ 140 µM); that for `O=C(Nc1cc2c3c(c1)CC(=O)N3CCC2)c1ccc(Cl)cc1`, 6.6 µg/mL (≈ 20.2 µM).

`O=C(COC(=O)c1ccc[nH]c1=O)NCCc1ccc(F)cc1` showed a kinetic solubility of 44.6 µg/mL (≈ 140 µM). `N#C/C(=C\c1c(N2CCCCCC2)nc2ccccn2c1=O)C(N)=O`: the kinetic solubility was > 50.6 µg/mL. Turning to `COCc1nnc(NC(=O)c2cc3ccccc3o2)s1`, the solubility (kinetic) is > 43.4 µg/mL. As for `CCCCCC(=O)NNC1CC(=O)N(c2ccccc2)C1=O` (stereo unspecified), the solubility (kinetic) was > 45.5 µg/mL.

`CCCCCCCCCCOC(=O)NC1CCS(=O)(=O)C1` (stereo unspecified) came in with a kinetic solubility of 1.1 µg/mL (≈ 3.44 µM).

As to `CCCc1cc(=O)[nH]c(SCC(=O)N2CCC(C)CC2)n1`, the kinetic solubility was > 46.4 µg/mL. In the case of `COc1cc([N+](=O)[O-])ccc1NC(=O)NCc1ccccn1`, the solubility (kinetic) is > 45.3 µg/mL.

`Cc1nc(N2CCOCC2)nc(N2CCCCC2C)c1[N+](=O)[O-]` (stereo unspecified): the solubility (kinetic) is 12.2 µg/mL (≈ 38 µM).

`CN(C)/C=C(\C=O)c1onc(-c2ccccc2Cl)c1C#N`: the kinetic solubility was 44.8 µg/mL (≈ 148 µM). This solubility kinetic is about 3.7-fold higher than that of the compound before. The value for `CNC(=O)c1ccc(Nc2nc(-c3ccccc3)nc3ccccc23)cc1` was 14.9 µg/mL (≈ 42 µM); that for `COc1cccc(C(=O)OCC(=O)N2CCC(Cc3ccccc3)CC2)c1OC` was 28.1 µg/mL (≈ 70.7 µM). The value for `COc1ccc(N2CCN(C(=O)COCC(=O)O)CC2)cc1` was > 46.3 µg/mL; that for `COc1cccc(NC(=O)CNCc2ccccc2)c1.Cl` was > 46 µg/mL. Compound `Cc1ccc(CN2CCC(N3CC(C)OC(C)C3)CC2)cc1.Cl` (stereo unspecified) yielded a solubility (kinetic) of 31.8 µg/mL. Consider `CCOc1ccccc1NC(=O)NCCN1CCCCC1`, for which the kinetic solubility was > 43.7 µg/mL. With `Cn1c(SCC(=O)Nc2ccccc2)nc2ccccc2c1=O`, the solubility (kinetic) worked out at 3.2 µg/mL (≈ 9.83 µM). The result for `Cc1cc(NC(=O)COc2ccccc2C(N)=O)no1` reads 19.7 µg/mL (≈ 71.6 µM); that for `CC1(C)CC(NC(=O)C2CCCCC2)CC(C)(C)N1`, 35.2 µg/mL (≈ 132 µM); that for `COc1ccc(S(=O)(=O)Oc2cc(C(=S)N3CCOCC3)ccc2OC)cc1`, 25.4 µg/mL (≈ 60 µM). The result for `COc1ccccc1NC(=O)c1ccc2c(c1)OCO2` reads 39.7 µg/mL (≈ 146 µM); that for `Nc1nc(Nc2ccc(Cl)cc2)c(NC=O)c(=O)[nH]1`, > 42 µg/mL. Regarding `Cc1onc(-c2ccccc2)c1C(=O)Nc1nncs1`, the solubility (kinetic) is > 42.9 µg/mL. In the case of `CS(=O)(=O)N(CC(=O)N1CCCC1)Cc1ccc(F)cc1`, the solubility (kinetic) was > 47.2 µg/mL. Take `Cn1cccc1C(=O)NC(=O)COC(=O)CCNS(=O)(=O)c1ccc(Cl)cc1`: the kinetic solubility stood at 13.8 µg/mL (≈ 32.3 µM). Turning to `NC(=NCc1ccco1)NC(=O)c1ccccc1`, the solubility (kinetic) is > 36.5 µg/mL. Turning to `O=[N+]([O-])c1ccc(O)c(C=Nc2ccc3c(c2)OCO3)c1`, the kinetic solubility turned out to be 15.8 µg/mL (≈ 55.2 µM). The compound `NC(=O)C1CCN(C(=O)c2cc3c(s2)CCCC3)CC1` displayed a solubility (kinetic) of 43.7 µg/mL (≈ 149 µM). `CCC(=O)Nc1cc(OC)cc(OC)c1`: the solubility (kinetic) was > 31.4 µg/mL. With `CN(C)CCCN=Cc1c(O)n(Cc2ccco2)c(=O)[nH]c1=O`, the solubility (kinetic) came to 36.4 µg/mL (≈ 114 µM). As for `Cc1nc2ccc(NC(=O)c3cccc(S(=O)(=O)N4CCOCC4)c3)cc2s1`, the solubility (kinetic) is 6.2 µg/mL (≈ 14.8 µM). This solubility kinetic is about 5.9-fold lower than that of the compound before.

As to `CCN(CC)c1ccc(NC(=O)CN(C)Cc2cccs2)cc1`, the solubility (kinetic) was 39.1 µg/mL (≈ 118 µM). For the compound `Cc1cc(N2CCOCC2)nc(SCC(=O)OCc2ccccc2)n1`, the solubility (kinetic) is > 53.9 µg/mL. In the case of `CCC(C)NCCOc1cc(C)cc(C)c1C.O=C(O)C(=O)O` (stereo unspecified), the solubility (kinetic) came out at 35.1 µg/mL. Take `O=C(O)c1cc(-c2ccccc2)n(-c2ccc(F)cc2)n1`: the solubility (kinetic) is > 42.3 µg/mL. `CC(C)(C)SCCNS(=O)(=O)c1ccc(C#N)cc1` showed a kinetic solubility of 18.1 µg/mL (≈ 60.7 µM).

On to `O=C(NCc1ccccc1)c1ccc(=O)oc1`, for which the solubility (kinetic) was > 34.4 µg/mL. The compound `CC(=O)c1ccc(NS(=O)(=O)c2ccc3c(c2)CCC(=O)N3)cc1` registered a kinetic solubility of 48.3 µg/mL (≈ 140 µM). On to `CSCC(=O)N1CCC(CCC(=O)NC2CC2)CC1`, for which the kinetic solubility is > 42.7 µg/mL.

For the origin of these results see PubChem BioAssay AID1996.
